{"source": "ChEMBL document CHEMBL4265894", "about": "“Developing potential Helicobacter pylori urease inhibitors from novel oxoindoline derivatives: Synthesis, biological evaluation and in silico study” (Bioorg Med Chem Lett, 2018)", "key": {"Urease": {"molecular_target": "Urease (Helicobacter pylori, UniProt Q0PXQ5)", "sequence (Q0PXQ5 whole entry)": "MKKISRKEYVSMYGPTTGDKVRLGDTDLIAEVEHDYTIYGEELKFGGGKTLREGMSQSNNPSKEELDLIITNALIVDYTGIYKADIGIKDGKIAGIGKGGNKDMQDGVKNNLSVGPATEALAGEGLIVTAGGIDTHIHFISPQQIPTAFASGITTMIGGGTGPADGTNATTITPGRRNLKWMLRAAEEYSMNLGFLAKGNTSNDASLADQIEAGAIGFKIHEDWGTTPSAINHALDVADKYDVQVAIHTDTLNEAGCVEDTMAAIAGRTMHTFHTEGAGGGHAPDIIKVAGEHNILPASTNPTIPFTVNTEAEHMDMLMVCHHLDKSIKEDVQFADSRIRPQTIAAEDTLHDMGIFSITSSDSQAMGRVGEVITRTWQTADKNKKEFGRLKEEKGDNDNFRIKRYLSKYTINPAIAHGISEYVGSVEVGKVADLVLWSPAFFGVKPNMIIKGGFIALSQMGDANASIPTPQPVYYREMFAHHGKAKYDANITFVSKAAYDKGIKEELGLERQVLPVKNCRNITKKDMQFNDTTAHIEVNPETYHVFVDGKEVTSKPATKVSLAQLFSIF", "assay": "Inhibition of Helicobacter pylori urease after 50 mins by indophenol method"}, "Helicobacter pylori": {"system": "Helicobacter pylori", "assay": "Antibacterial activity against Helicobacter pylori after 48 hrs", "format": "functional"}, "[1]": {"assay": "Cytotoxicity against HEK293T cells after 24 hrs by MTT assay", "format": "cell-based, HEK-293T", "conditions": "human"}, "[2]": {"assay": "Cytotoxicity against human LO2 cells after 24 hrs by MTT assay", "format": "cell-based, L02"}}, "data": [{"smiles": "COc1ccc(C(=O)N/N=C2/C(=O)N(CC=C(C)C)c3ccccc32)cc1", "values": [{"measurement": "IC50", "setting": "Urease", "value": 6.99, "unit": "µM"}, {"measurement": "MIC", "setting": "Helicobacter pylori", "value": 10.3, "unit": "µM"}]}, {"smiles": "CC(C)=CCN1C(=O)/C(=N/NC(=O)c2ccc(C(F)(F)F)cc2)c2ccccc21", "values": [{"measurement": "IC50", "setting": "Urease", "value": 44.1, "unit": "µM"}, {"measurement": "MIC", "setting": "Helicobacter pylori", "value": 83.9, "unit": "µM"}]}, {"smiles": "COc1ccc(C(=O)N/N=C2/C(=O)N(CC=C(C)C)c3ccccc32)cc1F", "values": [{"measurement": "IC50", "setting": "Urease", "value": 3.82, "unit": "µM"}, {"measurement": "MIC", "setting": "Helicobacter pylori", "value": 3.94, "unit": "µM"}, {"measurement": "GI50 at 24 h", "setting": "[1]", "value": 169, "unit": "µM"}, {"measurement": "GI50 at 24 h", "setting": "[2]", "value": "> 200", "unit": "µM"}]}, {"smiles": "COc1cccc(C(=O)N/N=C2/C(=O)N(CC=C(C)C)c3ccccc32)c1", "values": [{"measurement": "IC50", "setting": "Urease", "value": 8.21, "unit": "µM"}, {"measurement": "MIC", "setting": "Helicobacter pylori", "value": 15.2, "unit": "µM"}]}, {"smiles": "CC(C)=CCN1C(=O)/C(=N/NC(=O)c2ccc(Br)cc2)c2ccccc21", "values": [{"measurement": "IC50", "setting": "Urease", "value": 83.9, "unit": "µM"}, {"measurement": "MIC", "setting": "Helicobacter pylori", "value": 137, "unit": "µM"}]}, {"smiles": "CC(C)=CCN1C(=O)/C(=N/NC(=O)c2cccc(Cl)c2)c2ccccc21", "values": [{"measurement": "IC50", "setting": "Urease", "value": 38.1, "unit": "µM"}, {"measurement": "MIC", "setting": "Helicobacter pylori", "value": 72.5, "unit": "µM"}]}, {"smiles": "COc1ccccc1C(=O)N/N=C1/C(=O)N(CC=C(C)C)c2ccccc21", "values": [{"measurement": "IC50", "setting": "Urease", "value": 11.7, "unit": "µM"}, {"measurement": "MIC", "setting": "Helicobacter pylori", "value": 19.5, "unit": "µM"}]}, {"smiles": "CC(C)=CCN1C(=O)/C(=N/NC(=O)c2ccc(C)cc2)c2ccccc21", "values": [{"measurement": "IC50", "setting": "Urease", "value": 29.9, "unit": "µM"}, {"measurement": "MIC", "setting": "Helicobacter pylori", "value": 58.1, "unit": "µM"}]}, {"smiles": "CC(C)=CCN1C(=O)/C(=N/NC(=O)c2cc(C)cc(C)c2)c2ccccc21", "values": [{"measurement": "IC50", "setting": "Urease", "value": 4.38, "unit": "µM"}, {"measurement": "MIC", "setting": "Helicobacter pylori", "value": 6.75, "unit": "µM"}]}, {"smiles": "CC(C)=CCN1C(=O)/C(=N/NC(=O)c2ccc(F)cc2)c2ccccc21", "values": [{"measurement": "IC50", "setting": "Urease", "value": 154, "unit": "µM"}, {"measurement": "MIC", "setting": "Helicobacter pylori", "value": "> 200", "unit": "µM"}, {"measurement": "GI50 at 24 h", "setting": "[1]", "value": 195, "unit": "µM"}, {"measurement": "GI50 at 24 h", "setting": "[2]", "value": "> 200", "unit": "µM"}]}, {"smiles": "CC(C)=CCN1C(=O)/C(=N/NC(=O)c2ccccc2)c2ccccc21", "values": [{"measurement": "IC50", "setting": "Urease", "value": 129, "unit": "µM"}, {"measurement": "MIC", "setting": "Helicobacter pylori", "value": 171, "unit": "µM"}]}, {"smiles": "CC(C)=CCN1C(=O)/C(=N/Nc2ccccc2)c2ccccc21", "values": [{"measurement": "IC50", "setting": "Urease", "value": "> 300", "unit": "µM"}, {"measurement": "MIC", "setting": "Helicobacter pylori", "value": "> 200", "unit": "µM"}, {"measurement": "GI50 at 24 h", "setting": "[1]", "value": "> 200", "unit": "µM"}, {"measurement": "GI50 at 24 h", "setting": "[2]", "value": "> 200", "unit": "µM"}]}, {"smiles": "CC(C)=CCN1C(=O)/C(=N/NC(=O)c2cccc(Br)c2)c2ccccc21", "values": [{"measurement": "IC50", "setting": "Urease", "value": 27.6, "unit": "µM"}, {"measurement": "MIC", "setting": "Helicobacter pylori", "value": 50.5, "unit": "µM"}]}, {"smiles": "CC(C)=CCN1C(=O)/C(=N/NC(=O)c2cccc(C(F)(F)F)c2)c2ccccc21", "values": [{"measurement": "IC50", "setting": "Urease", "value": 65.8, "unit": "µM"}, {"measurement": "MIC", "setting": "Helicobacter pylori", "value": 108, "unit": "µM"}]}, {"smiles": "CC(C)=CCN1C(=O)/C(=N/NC(=O)c2ccc(C(C)(C)C)cc2)c2ccccc21", "values": [{"measurement": "IC50", "setting": "Urease", "value": 19.5, "unit": "µM"}, {"measurement": "MIC", "setting": "Helicobacter pylori", "value": 30.8, "unit": "µM"}]}, {"smiles": "Cc1ncc([N+](=O)[O-])n1CCO", "note": "[METRONIDAZOLE]", "values": [{"measurement": "MIC", "setting": "Helicobacter pylori", "value": 31.3, "unit": "µM"}]}, {"smiles": "CC(=O)NO", "note": "[ACETOHYDROXAMIC ACID]", "values": [{"measurement": "IC50", "setting": "Urease", "value": 17.2, "unit": "µM"}]}, {"smiles": "CC(C)=CCN1C(=O)/C(=N/NC(=O)c2ccc(Cl)cc2)c2ccccc21", "values": [{"measurement": "IC50", "setting": "Urease", "value": 143, "unit": "µM"}, {"measurement": "MIC", "setting": "Helicobacter pylori", "value": 185, "unit": "µM"}, {"measurement": "GI50 at 24 h", "setting": "[1]", "value": "> 200", "unit": "µM"}, {"measurement": "GI50 at 24 h", "setting": "[2]", "value": "> 200", "unit": "µM"}]}, {"smiles": "COc1ccc(C(=O)N/N=C2/C(=O)N(CC=C(C)C)c3ccccc32)cc1OC", "values": [{"measurement": "IC50", "setting": "Urease", "value": 0.71, "unit": "µM"}, {"measurement": "MIC", "setting": "Helicobacter pylori", "value": 0.48, "unit": "µM"}, {"measurement": "GI50 at 24 h", "setting": "[1]", "value": 184, "unit": "µM"}, {"measurement": "GI50 at 24 h", "setting": "[2]", "value": 178, "unit": "µM"}]}, {"smiles": "CC(C)=CCN1C(=O)/C(=N/NC(=O)c2ccc(Oc3ccccc3)cc2)c2ccccc21", "values": [{"measurement": "IC50", "setting": "Urease", "value": 22.7, "unit": "µM"}, {"measurement": "MIC", "setting": "Helicobacter pylori", "value": 41.8, "unit": "µM"}]}, {"smiles": "COc1cc(OC)cc(C(=O)N/N=C2/C(=O)N(CC=C(C)C)c3ccccc32)c1", "values": [{"measurement": "IC50", "setting": "Urease", "value": 1.35, "unit": "µM"}, {"measurement": "MIC", "setting": "Helicobacter pylori", "value": 1.96, "unit": "µM"}, {"measurement": "GI50 at 24 h", "setting": "[1]", "value": 176, "unit": "µM"}, {"measurement": "GI50 at 24 h", "setting": "[2]", "value": 188, "unit": "µM"}]}, {"smiles": "CC(C)=CCN1C(=O)/C(=N/NC(=O)c2ccc(C(C)C)cc2)c2ccccc21", "values": [{"measurement": "IC50", "setting": "Urease", "value": 14.9, "unit": "µM"}, {"measurement": "MIC", "setting": "Helicobacter pylori", "value": 27.5, "unit": "µM"}]}]}
